In patent US20070092464A1, “Betadine neutralizer” (priority 2005, published 2007):

Legend:
[1] = Iodine stain removal, trial and error testing / actual usage
Excerpt: In use, the desired level of concentration may be intentionally varied to correspond to anticipated situations. For instance, products that are directed towards general cleanup, such as flooring, or equipment, or linens, may be made at the higher ranges so as to ensure quick and complete neutralization of the Iodine. The higher concentrations serve also to overcome any associated soil or other materials that may impede the action of the sodium metabisulfite on the Iodine stains.

[2] = use of the metabisulfite solution directly on human and animal patients (tolerability); format: in vivo; conditions: 0.020 to 0.035 percent by weight in water, on skin
Excerpt: Additionally, the same solution is effective for removing stains elsewhere. The solutions of the present embodiments may be packaged for liquid application, such as in bottles, or sprays, or swabs.

[3] = cosmetic remover solution with parabens; cited from earlier work

| SMILES | effectiveness in eliminating Iodine staining ([1]; 0.020 to 0.035 percent by weight in water) | deleterious effects or irritation to the patient [2] | irritation or other adverse reactions in and about the eyes of users [3] | effectiveness of Iodine stain removal compared to modest aqueous solutions of sodium metabisulfite ([1]; sodium thiosulfate in an alkaline detergent type matrix, actual usage) |
| --- | --- | --- | --- | --- |
| O=S([O-])S(=O)(=O)[O-].[Na+].[Na+] [sodium metabisulfite] | highly effective | does not show any deleterious effects or irritation | did not contribute to any irritation or other adverse reactions | – |
| O=S([O-])([O-])=S.[Na+].[Na+] [sodium thiosulfate, reference compound] | – | – | – | weak |
